Read-outs that look alike come from different tables or passages of the source.
Key:
Assay type in all cases: cell-based
[1] = tested on: herpes simplex virus type 1 (KOS strain); experiment: Control of CPE (cytopathic effect) manifestation in vero cells; details: 100 μg/ml, HSV-1 (KOS), Example 7
[2] = tested on: herpes simplex virus type 1 (KOS strain); experiment: One-step growth of virus, plaque assay with vero cells; details: 100 μg/ml, 24 hours; for inhibition at 100 µg/mL / log reduction at 100 µg/mL: Human alphaherpesvirus 1, Vero, 24 h; for inhibition at 100 µg/mL: read-out: Intracellular virus Control ratio %; for log reduction at 100 µg/mL: read-out: Intracellular virus Control ratio -logT/C
[3] = tested on: herpes simplex virus type 1 (KOS strain); experiment: 50% Tissue culture infective dose (TCID50), Read-Munch method, negative logarithm of virus dilution; parameters: key to Cytopathic effect [CPE] (5days) TCID50 / Cytopathic effect [CPE] (3days) TCID50: TCID50 as negative log of maximum virus dilution ratio
[4] = tested on: herpes simplex virus type 1 (HF strain); experiment: Control of CPE (cytopathic effect) manifestation in vero cells; parameters: key to Cytopathic effect [CPE] (3days) Average / Cytopathic effect [CPE] (5days) Average / Cytopathic effect [CPE] (6days) Average: CPE score: 0 none, 0.5 minute spots, 1 = 25%, 2 = 50%, 3 = ≥75% cells; key to Cytopathic effect [CPE] (3days) △CPE / Cytopathic effect [CPE] (5days) △CPE / Cytopathic effect [CPE] (3days) ΔCPE / Cytopathic effect [CPE] (6days) ΔCPE: ΔCPE = difference of average CPE score (0–3 scale) from control; details: 100 μg/ml
Description: In vitro antiviral activity of Compound A against herpes simplex virus type 1 (HF strain) Compound A was tested for antiviral effect by the following two methods.
Vero cells cultured and grown in a monolayer on microplates to test for cytopathic effect due to viral infection, with solutions of Compound A diluted to varying ratios and solutions of virus diluted to varying ratios added severally thereto in a volume of 0.1 ml, were cultured under the conditions of 5% CO₂ and 37°C and were examined for CPE manifestation under a microscope. The observation was continued for five to six days.
The degree of CPE brought about by viral infection was rated on the five-point scale, wherein 3 stands for CPE observed on not less than 75% of cultured cells, 2 for CPE observed on 50% of cultured cells, 1 for CPE observed on 25% of cultured cells, 0.5 for occurrence of one to two extremely minute DPE spots, and 0 for perfect absence of recognizable CPE. The CPE scores obtained at the four holes in each microplate were averaged and the difference of the average from the average obtained in the control (omitting the treatment with a chemical) was reported as ΔCPE.
In vitro antiviral effect of Compound A against herpes simplex virus type 1 (HF strain) The test was carried out by following the procedure of Example 3.

[5] = tested on: herpes simplex virus type 2 (169 strain); experiment: 50% Tissue culture infective dose (TCID50), Read-Munch method, negative logarithm of virus dilution; parameters: key to Cytopathic effect [CPE] (5days) TCID50 / Cytopathic effect [CPE] (3days) TCID50 / Cytopathic effect [CPE] (6days) TCID50: negative log of maximum virus dilution infecting 50% of tissues; details: HSV-2 (169); for log reduction at 100 µg/mL: difference from control
Description: The amount of virus infecting 50% of tissues (TCID₅₀) was determined by the Read-Munch method and expressed in negative logarithm of the maximum radio of dilution of virus. The difference of the amount thus determined from the amount found in the control (omitting the treatment with a chemical) was reported as ΔTCID₅₀. A sample whose ΔCPE's found on the last day of observation and on each of the days spent for the observation exceeded 1.0 was evaluated as effective.
In vitro antiviral activity of Compound A against herpes simplex virus type 2 (169 strain) The test was carried out by following the procedure of Example 3.

[6] = 100 μg/ml, HSV-1 (KOS), Example 7
[7] = HSV-1 (HF strain), Example 5, difference from control
[8] = HSV-1 (HF), Example 3, difference from control

Nc1nc2c(ncn2COCCO)c(=O)[nH]1 [ACV, acyclovir, reference compound]
Cytopathic effect [CPE] (3days) Average [1]: 0
Cytopathic effect [CPE] (5days) Average [1]: 0
Cytopathic effect [CPE] (3days) △CPE ([1]; difference from control): 2.0
Cytopathic effect [CPE] (5days) △CPE ([1]; difference from control): 3.0
Intracellular virus Average [2]: 8.50×10^2 /dish
inhibition at 100 µg/mL ([2]; extracellular virus): > 99.9%
log reduction at 100 µg/mL ([2]; extracellular virus): 5.78
inhibition at 100 µg/mL [2]: > 99.9%
log reduction at 100 µg/mL [2]: 5.68
Cytopathic effect [CPE] (3days) TCID50 [3, 6]: 3.5
Cytopathic effect [CPE] (5days) TCID50 [3, 6]: 3.5
log reduction at 100 µg/mL ([3]; Human alphaherpesvirus 1, 72 h, read-out: Cytopathic effect [CPE] (3days) △TCID50): 2
log reduction at 100 µg/mL ([3]; Human alphaherpesvirus 1, 120 h, read-out: Cytopathic effect [CPE] (5days) △TCID50): 2.5
Cytopathic effect [CPE] (3days) Average ([4]; HSV-1 (HF strain), Example 5): 0.875
Cytopathic effect [CPE] (6days) Average ([4]; HSV-1 (HF strain), Example 5): 1.0
Cytopathic effect [CPE] (3days) ΔCPE [4, 7]: 1.875
Cytopathic effect [CPE] (6days) ΔCPE [4, 7]: 2.0
Cytopathic effect [CPE] (3days) Average ([4]; HSV-1 (HF), Example 3): 0
Cytopathic effect [CPE] (5days) Average ([4]; HSV-1 (HF), Example 3): 0
Cytopathic effect [CPE] (3days) △CPE [4, 8]: 1.5
Cytopathic effect [CPE] (5days) △CPE [4, 8]: 1.75
Cytopathic effect [CPE] (3days) TCID50 ([5]; 100 μg/ml, Example 4): 3.5
Cytopathic effect [CPE] (5days) TCID50 ([5]; 100 μg/ml, Example 4): 3.5
Cytopathic effect [CPE] (3days) TCID50 ([5]; 100 μg/ml, Example 6): < 3.5
Cytopathic effect [CPE] (6days) TCID50 ([5]; 100 μg/ml, Example 6): 3.5
log reduction at 100 µg/mL ([5]; Human alphaherpesvirus 2, 72 h, read-out: Cytopathic effect [CPE] (3days) △TCID50, 100 μg/ml, Example 4): 3
log reduction at 100 µg/mL ([5]; Human alphaherpesvirus 2, 72 h, read-out: Cytopathic effect [CPE] (3days) △TCID50, 100 μg/ml, Example 6): > 3.2
log reduction at 100 µg/mL ([5]; Human alphaherpesvirus 2, 120 h, read-out: Cytopathic effect [CPE] (5days) △TCID50, 100 μg/ml, Example 4): 3
log reduction at 100 µg/mL ([5]; Human alphaherpesvirus 2, 144 h, read-out: Cytopathic effect [CPE] (6days) △TCID50, 100 μg/ml, Example 6): 3.2

Source: EP0450065A1, “ANTIVIRAL AGENT” (priority 1988, dated 1990)
